Experimental data as given in patent US4882343A, “Biarylalkylimidazole derivatives as anti-depressants” (G. D. Searle & Co., priority 1987, dated 1989).
pKi: −log10 of the molar value.

Legend:
α2 adrenergic receptor [1] = molecular target: T1, α2 adrenergic receptor (Rattus norvegicus, UniProt P22909); test: in vitro binding to alpha2-adrenergic receptors (3H-p-aminoclonidine displacement), rat brain homogenates; details: for inhibition at 0.1 µM: compd. conc. 10^-7 M, ligand 3H-p-aminoclonidine 0.7 nM, rat brain homogenates, read-out: % Inhibition of the specific binding for α2 receptor, Ligand PAC; for pKi: ligand 3H-p-aminoclonidine, Cheng and Prusoff, read-out: α2 receptor Ki value, ligand PAC; for affinity for α2 receptors in the in vitro binding assay (in words): rat brain, result in words; for α2-receptor binding affinity for the aminoclonidine ligand relative to the ortho-pyridyl compound (Compound 3): para- and meta-pyridyl compounds versus ortho-pyridyl compound, Table III column 3
T1 construct: rat brain homogenates; from tissue; host or cells: rat brain homogenate
T1 sequence (P22909 1-465): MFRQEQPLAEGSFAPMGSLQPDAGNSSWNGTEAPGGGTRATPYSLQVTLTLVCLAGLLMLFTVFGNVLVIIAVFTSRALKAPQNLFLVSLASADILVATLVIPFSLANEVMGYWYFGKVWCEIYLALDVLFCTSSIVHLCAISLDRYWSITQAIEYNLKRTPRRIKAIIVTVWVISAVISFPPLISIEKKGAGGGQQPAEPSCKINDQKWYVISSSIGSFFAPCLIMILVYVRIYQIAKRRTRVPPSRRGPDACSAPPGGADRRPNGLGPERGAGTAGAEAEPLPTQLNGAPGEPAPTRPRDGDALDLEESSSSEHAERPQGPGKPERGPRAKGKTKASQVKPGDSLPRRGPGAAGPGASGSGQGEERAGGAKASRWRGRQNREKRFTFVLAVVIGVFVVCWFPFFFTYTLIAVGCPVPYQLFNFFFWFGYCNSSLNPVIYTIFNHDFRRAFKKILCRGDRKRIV
Description: (§1) This method measures the binding to the receptor on rat brain homogenates by marking by means of a specific tritiated ligand placed in competition with the product to be tested. […] The binding to the α2-adrenergic receptors was determined by uses of 0.7 nM of ^3 H-p-aminoclonidine (PAC). The non-specific binding was determined by use of 1,000 nM of phentolamine.
(§2) KD represents the dissociation constant of the ^3 H-ligand in the test mixture
(§3) [L*] represents the concentration of the ^3 H-ligand in the test mixture.

α2 adrenergic receptors = molecular target: T2, α2 adrenergic receptors (Cavia porcellus, UniProt Q60474); test: isolated guinea pig ileum, α2 antagonistic and α2 agonistic activity (clonidine inhibition of electrically induced contractions)
T2 construct: upon isolated organs according to a model described by G. Drews; from tissue; host or cells: isolated guinea pig ileum
T2 sequence (Q60474 1-464): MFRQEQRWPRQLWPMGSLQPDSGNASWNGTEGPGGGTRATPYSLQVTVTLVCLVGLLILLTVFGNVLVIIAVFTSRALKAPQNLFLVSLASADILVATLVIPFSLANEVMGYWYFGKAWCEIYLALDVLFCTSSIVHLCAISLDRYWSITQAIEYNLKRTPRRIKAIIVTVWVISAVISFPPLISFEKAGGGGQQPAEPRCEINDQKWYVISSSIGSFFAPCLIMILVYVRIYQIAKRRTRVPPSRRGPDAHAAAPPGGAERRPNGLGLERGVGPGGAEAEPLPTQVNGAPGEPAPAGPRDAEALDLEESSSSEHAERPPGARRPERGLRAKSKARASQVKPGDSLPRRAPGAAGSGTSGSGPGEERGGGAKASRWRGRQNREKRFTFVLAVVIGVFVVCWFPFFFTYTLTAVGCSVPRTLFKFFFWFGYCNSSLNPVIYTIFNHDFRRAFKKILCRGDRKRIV
Description: In Table IV, columns 3 and 4 summarize the in vitro activities of the compounds evaluated in a guinea pig ileum model. Column 5 summarizes the α2 antagonistic effects of the compounds in an in vivo animal model. The α2 antagonistic and α2 agonistic activities of the compounds according to the invention were determined upon isolated organs according to a model described by G. Drews, Br. J. Pharmaco., 64, 293-300 (1978). This model was based upon the principle that the stimulation of the cholinergic nervous transmissions of the guinea pig ileum causes the liberation of acetyl choline, which in turn causes contractions of the ileum. The stimulation of the α2 -adrenergic receptors inhibits the activity of the cholinergic nerves and consequently reduces all responses due to the latter. Thus the contractions of the ileum induced by electric stimulation are inhibited by clonidine, an α2 agonist, in proportion to the dose. This inhibition was selectively displaced by α2 antagonists and not by α1 antagonists. The method used can be summarized as follows. Three dose-response curves to clonidine were established at an interval of 60 minutes. […] The dose-response curves were calculated as a percentage of the maximum inhibition obtained for the first curve. […] The α2 antagonist activity, expressed in pA2 value shown in column 3 of Table IV, was calculated according to J. M. Van Rossum, Arch. […]

α1 adrenergic receptor = test: in vitro binding to alpha1-adrenergic receptors (3H-WB4101 or 3H-prazosin displacement), rat brain homogenates; details: for % Inhibition of the specific binding for α1 receptor, Ligand WB / % Inhibition of the specific binding for α1 receptor, Ligand PRA: compd. conc. 10^-6 M, rat brain homogenates; for % Inhibition of the specific binding for α1 receptor, Ligand WB: ligand 3H-WB4101 1.6 nM; for % Inhibition of the specific binding for α1 receptor, Ligand PRA: ligand 3H-prazosin 0.2 nM; for pKi: ligand 3H-prazosin, Cheng and Prusoff, read-out: α1 receptor Ki value, ligand PRA
Description: Table II summarizes the binding activities for α1 and α2 adrenergic receptors of the compounds tested. The activity of the compounds according to the invention with respect to binding of the α-adrenergic receptors was determined in vitro according to a method derived from the works of B. R. Rouot, et al., Life Sci., 25, 769 (1979) of D. U'Prichard, et al., Mol. Pharmacol., 13, 454 (1977) and of P. Greengrass, et al., European J. Pharmacol., 55, 323, 1979. This method measures the binding to the receptor on rat brain homogenates by marking by means of a specific tritiated ligand placed in competition with the product to be tested. In the present case the binding, to the α1 -adrenergic receptors was measured by use of 1.6 nM of H-WB 4101 (WB) and 0.2 nM --H--prazosin (PRA). The binding to the α2-adrenergic receptors was determined by uses of 0.7 nM of ^3 H-p-aminoclonidine (PAC). The non-specific binding was determined by use of 1,000 nM of phentolamine. Results are given in Table II with columns 2 and 3 expressed in terms of percentage of inhibition of the specific binding at 10^-7 molar and 10^-6 molar compound concentration.
In Table III, columns 2 and 3 show the pKi values (pKi=-log inhibition constant) for respecively the α1 receptor (ligand ^3 H-prazosin) and the α2 receptor (ligand ^3 H-p-aminoclonidine), calculated according to the equation of Cheng and Prusoff: [formula] wherein: Ki represents the inhibition constant;
IC50 represents the concentration of the test compound providing 50% inhibition of the specific binding;
as §2, §3

[2] = acute toxicity after oral administration to mice (LD50); details: mouse, in vivo, mortality recorded for 15 days
Description: The acute toxicity of the compounds of the present invention was studied after oral administration to mice. The products to be tested, suspended in a 1% tragacanth gum mucilage, were administered by means of an intragastric probe to groups of three male mice which had fasted since the preceding day. The doses tested are a function of the effect observed and can vary from 3,000 to 3 mg/kg or less. The mortality was recorded for 15 days. The lethal dose for 50% of the animals (LD50) was calculated according to the method of J. Litchfield and F. Wilcoxon, J. Pharmacol. Exp. Ther., 96, 99 (1949) and expressed in mg/kg. The effect of the products on the behavior of the animals was observed during a 5-to-6 hour period after the treatment indicated above and after 24 hours, using a method derived from that of S. Irwin, described by R. A. Turner, Screening Methods in Pharmacology, Chapter 3, pages 22-34, Academic Press, 1965. If anomalies were noted, the observation was prolonged and smaller doses were tested. The compounds of the present invention have been subjected to a series of in vitro and in vivo tests to determine their biological activity and therapeutic utility. The essential activity of importance resides in the α2 receptor antagonistic activity. […]

α2 adrenergic receptor [3] = test: in vitro binding to alpha2-adrenergic receptors (3H-p-aminoclonidine displacement), rat brain homogenates; details: ratio of Ki, ligand PRA (α1) / ligand PAC (α2)
Description: as §1, §2, §3

[4] = test system: clonidine-induced depression of locomotor activity (α2 agonist effects); test: open field test, antagonism of clonidine-induced depression of locomotor and rearing activity; assay type: in vivo, mouse; details: 3 mg/kg p.o.; for Open field test % inhibition of clonidine hypomobility, Locomotion / Open field test % inhibition of clonidine hypomobility, Rearing: 1 h before clonidine 150 μg/kg i.p., mouse
Description: This study involved clonidine α2 agonist effects on central control of locomotor activity. Clonidine inhibits locomotor activity and rearing activity in the mouse. In this "open field" test, mice were pretreated with the compounds of the present invention at a dose of 3 mg/kg p.o. (n=4 to 8), one hour prior to intraperitoneal administration of clonidine in solution (150 μg/kg, i.p.). Ninety minutes after the clonidine administration the animals were placed in a rectangular "open field" of 47×53 cm, having a floor divided into 36 boxes of about 8×9 cm. The number of boxes through which the animal goes in 3 minutes and the number of rearing episode were noted.

Structure (SMILES) | inhibition at 0.1 µM (α2 adrenergic receptor [1]) [%] | pKi (α2 adrenergic receptor [1]) | Kb (α2 adrenergic receptors; against clonidine, read-out: α2 antagonist activity pA2 (converted)) [nM] | EC50 (α2 adrenergic receptors; pD2 = -log ED50, 50% of maximum inhibition obtained with clonidine, read-out: α2 agonist activity pD2 (converted)) [nM] | % Inhibition of the specific binding for α1 receptor, Ligand WB (α1 adrenergic receptor) [%] | LD50 at 360 h [2] [mg/kg] | Selectivity of α1/α2 affinity (Kiα1/Kiα2) (α2 adrenergic receptor [3]) | % Inhibition of the specific binding for α1 receptor, Ligand PRA (α1 adrenergic receptor) [%] | pKi (α1 adrenergic receptor) | Open field test % inhibition of clonidine hypomobility, Locomotion [4] [%] | Open field test % inhibition of clonidine hypomobility, Rearing [4] [%] | affinity for α2 receptors in the in vitro binding assay (in words) (α2 adrenergic receptor [1]) | α2-receptor binding affinity for the aminoclonidine ligand relative to the ortho-pyridyl compound (Compound 3) (α2 adrenergic receptor [1]) | antagonism of clonidine-induced depression of locomotor and rearing activity (in words) ([4]; mouse open field, result in words)
c1ccc(C(Cc2c[nH]cn2)c2ccccn2)cc1 (stereo not drawn) [Compound 3, 4(5)-[2-phenyl-2-(2-pyridyl)-ethyl]-imidazole] | 40 | 7.14 | 50.1 | 100000 | 0 | 130 |  |  |  |  |  |  |  | 
c1ccc(C(Cc2c[nH]cn2)c2ccccc2)cc1 [CC, reference compound] |  | 8.11 |  |  | 21 |  | 85 | 27 | 6.18 | 100 | 100 |  |  | 
c1ccc(C(Cc2c[nH]cn2)c2cccnc2)cc1 (stereo not drawn) [Compound 2, 4(5)-[2-phenyl-2-(3-pyridinyl)-ethyl]-imidazole] | 94 | 8.32 |  |  | 7 | ~175 | 540 | 10 | 5.59 |  |  | high affinity for α2 receptors | fifteen times higher | 
c1ccc(C(Cc2c[nH]cn2)c2ccncc2)cc1 (stereo not drawn) [Compound 1, 4(5)-[2-phenyl-2-(4-pyridinyl)-ethyl]-imidazole] | 91 | 8.34 |  |  | 2 |  | 2900 | 14 | 4.87 | 90 | 80 | high affinity for α2 receptors | fifteen times higher | very active in this test
